Experiments:
Format in all cases: cell-based
[1] = tested on: E. coli BT3(ΔPPO) transformed with Auxenochlorella protothecoides ApPPO1 wild type, SEQ ID NO: 1; assay: Herbicide tolerance test in PPO-deficient E. coli BT3(ΔPPO), growth on plates; settings: ApPPO1 WT, Table 7; light, 37° C., 16 to 20 hours; vs wild type at highest herbicide concentration
Procedure: (§1) Then, the extent of tolerance was evaluated.

[2] = tested on: E. coli BT3(ΔPPO) transformed with Auxenochlorella protothecoides ApPPO1 (SEQ ID NO: 1) variant A215C (AC); assay: as above; settings: Table 7, light, 37° C., 16 to 20 hours, vs wild type at highest herbicide concentration
Procedure: (§2) The mutated CyPPO gene obtained from the Example 2 was transformed to BT3 (ΔPPO) strain which is deficient of PPO activity and cultured in LB media with PPO-inhibiting herbicide, thereby examining whether growth of transformed BT3 was not inhibited.
(§3) BT3 competent cells were transformed with the pET303-ApPPO1 and pET303-MxPPO plasmids and those with a mutation(s) constructed in Example 2 respectively, and were cultured in LB agar media containing carbenicillin (Gold Biotechnology, Co., Ltd.).
(§4) Single colony of E. coli transformed with each CyPPO gene was cultured in 3 ml of LB broth containing carbenicillin overnight, and then was subcultured until absorbance (OD600) reached 0.5 to 1. Then, it was diluted with LB broth to OD600=0.5. Again, the diluted solution was serially diluted 4 times by a factor of one tenth.
(§5) The LB agar media (LB 25 g/l, Bacto agar 15 g/l) containing carbenicillin (100 μg/ml) and 0 to 4,000 μM of various herbicides dissolved in DMSO was prepared. Next, 10 μl of each diluted solution was dropped on the plate and cultured at 37° C. under light (Tables 7, 9 and 10, FIGS. 2 to 6, 13 to 20) or dark (Tables 8 and 11, FIGS. 7 to 12, 21 to 24) for 16 to 20 hours. Then, the extent of tolerance was evaluated.
(§6) The extent of herbicide tolerance of the ApPPO1 or MxPPO mutated genes was evaluated by comparing that of mutated genes with that of ApPPO1 or MxPPO wild type. The relative tolerance was represented with “+” as a factor of 10 times.
(§7) In Tables 7 to 11, tolerance level was presented as ‘−’ of tolerance of wild type and of variants equivalent to that of wild type, and was done as ‘+’ per each 10 fold resistance until ‘+++++’ as maximal resistance. […] A dilution series (OD600=0.5, 0.05, 0.005, 0.0005, 0.00005) was made and spotted on LB agar plates supplemented with herbicides.

[3] = tested on: E. coli BT3(ΔPPO) transformed with Auxenochlorella protothecoides ApPPO1 (SEQ ID NO: 1) variant A215L (AL); assay: as above; settings: Table 7, light, 37° C., 16 to 20 hours, vs wild type at highest herbicide concentration
Procedure: as §2, §3, §4, §5, §6, §7

[4] = tested on: E. coli BT3(ΔPPO) transformed with Auxenochlorella protothecoides ApPPO1 (SEQ ID NO: 1) variant V360M (VM); assay: as above; settings: Table 7, light, 37° C., 16 to 20 hours, vs wild type at highest herbicide concentration
Procedure: as §2, §3, §4, §5, §6, §7

[5] = tested on: E. coli BT3(ΔPPO) transformed with Auxenochlorella protothecoides ApPPO1 (SEQ ID NO: 1) variant Y422T (YT); assay: as above; settings: Table 7, light, 37° C., 16 to 20 hours, vs wild type at highest herbicide concentration
Procedure: as §2, §3, §4, §5, §6, §7

[6] = tested on: E. coli BT3(ΔPPO) transformed with Auxenochlorella protothecoides ApPPO1 (SEQ ID NO: 1) variant Y422C (YC); assay: as above; settings: Table 7, light, 37° C., 16 to 20 hours, vs wild type at highest herbicide concentration
Procedure: as §2, §3, §4, §5, §6, §7

[7] = tested on: E. coli BT3(ΔPPO) transformed with Auxenochlorella protothecoides ApPPO1 (SEQ ID NO: 1) variant Y422M (YM); assay: as above; settings: Table 7, light, 37° C., 16 to 20 hours, vs wild type at highest herbicide concentration
Procedure: as §2, §3, §4, §5, §6, §7

[8] = tested on: E. coli BT3(ΔPPO) transformed with Auxenochlorella protothecoides ApPPO1 (SEQ ID NO: 1) variant Y422I (YI); settings: Table 7, light, 37° C., 16 to 20 hours, vs wild type at highest herbicide concentration
Procedure: as §2, §3, §4, §5, §6, §7

[9] = tested on: E. coli BT3(ΔPPO) transformed with Auxenochlorella protothecoides ApPPO1 (SEQ ID NO: 1) variant Y422L (YL); assay: Herbicide tolerance test in PPO-deficient E. coli BT3(ΔPPO), growth on plates; settings: Table 7, light, 37° C., 16 to 20 hours, vs wild type at highest herbicide concentration
[10] = tested on: E. coli BT3(ΔPPO) transformed with Myxococcus xanthus MxPPO wild type, SEQ ID NO: 3; assay: as above; settings: MxPPO WT, Table 9; light; tiafenacil to 2000 μM, saflufenacil to 200 μM, flumioxazin to 100 μM
Procedure: as §1

[11] = tested on: E. coli BT3(ΔPPO) transformed with Myxococcus xanthus MxPPO (SEQ ID NO: 3) variant A170C; assay: as above; settings: Table 9, light, tiafenacil to 2000 μM, saflufenacil to 200 μM, flumioxazin to 100 μM
Procedure: as §2, §3, §4, §5
(§8) The extent of herbicide tolerance of the ApPPO1 or MxPPO mutated genes was evaluated by comparing that of mutated genes with that of ApPPO1 or MxPPO wild type. […]

[12] = tested on: E. coli BT3(ΔPPO) transformed with Myxococcus xanthus MxPPO (SEQ ID NO: 3) variant A170L; assay: as above; settings: Table 9, light, tiafenacil to 2000 μM, saflufenacil to 200 μM, flumioxazin to 100 μM
Procedure: as §2, §3, §4, §5, §8

[13] = tested on: E. coli BT3(ΔPPO) transformed with Myxococcus xanthus MxPPO (SEQ ID NO: 3) variant I311M; assay: as above; settings: Table 9, light, tiafenacil to 2000 μM, saflufenacil to 200 μM, flumioxazin to 100 μM
Procedure: as §2, §3, §4, §5, §8

[14] = tested on: E. coli BT3(ΔPPO) transformed with Myxococcus xanthus MxPPO (SEQ ID NO: 3) variant M365I; assay: as above; settings: Table 9, light, tiafenacil to 2000 μM, saflufenacil to 200 μM, flumioxazin to 100 μM
Procedure: as §2, §3, §4, §5, §8

[15] = tested on: E. coli BT3(ΔPPO) transformed with Myxococcus xanthus MxPPO (SEQ ID NO: 3) variant M365L; assay: as above; settings: Table 9, light, tiafenacil to 2000 μM, saflufenacil to 200 μM, flumioxazin to 100 μM
Procedure: as §2, §3, §4, §5, §8

[16] = tested on: E. coli BT3(ΔPPO) transformed with Myxococcus xanthus MxPPO (SEQ ID NO: 3) variant M365V; assay: as above; settings: Table 9, light, tiafenacil to 2000 μM, saflufenacil to 200 μM, flumioxazin to 100 μM
Procedure: as §2, §3, §4, §5, §8

| SMILES | relative herbicide tolerance level [1] | relative herbicide tolerance level [2] | relative herbicide tolerance level [3] | relative herbicide tolerance level [4] | relative herbicide tolerance level [5] | relative herbicide tolerance level [6] | relative herbicide tolerance level [7] | relative herbicide tolerance level [8] | relative herbicide tolerance level [9] | relative herbicide tolerance level [10] | relative herbicide tolerance level [11] | relative herbicide tolerance level [12] | relative herbicide tolerance level [13] | relative herbicide tolerance level [14] | relative herbicide tolerance level [15] | relative herbicide tolerance level [16] |
| --- | --- | --- | --- | --- | --- | --- | --- | --- | --- | --- | --- | --- | --- | --- | --- | --- |
| O=C(O)c1cc(Oc2ccc(C(F)(F)F)cc2Cl)ccc1[N+](=O)[O-] [acifluorfen] | − | ++ (10-99 fold higher tolerance) | +++ (100-999 fold higher tolerance) | ++ (10-99 fold higher tolerance) | + (1-9 fold higher tolerance) | ++ (10-99 fold higher tolerance) | ++ (10-99 fold higher tolerance) | + (1-9 fold higher tolerance) | ++ (10-99 fold higher tolerance) |  |  |  |  |  |  |  |
| CC(C)=C1OC(=O)N(c2cc(OC3CCCC3)c(Cl)cc2F)C1=O [pentoxazone] | − | + (1-9 fold higher tolerance) |  | + (1-9 fold higher tolerance) |  | +++ (100-999 fold higher tolerance) |  | ++ (10-99 fold higher tolerance) |  |  |  |  |  |  |  |  |
| CS(=O)(=O)NC(=O)c1cc(Oc2ccc(C(F)(F)F)cc2Cl)ccc1[N+](=O)[O-] [Fomesafen, fomesafen] | − | + (1-9 fold higher tolerance) | +++ (100-999 fold higher tolerance) | + (1-9 fold higher tolerance) | + (1-9 fold higher tolerance) | ++ (10-99 fold higher tolerance) | + (1-9 fold higher tolerance) | + (1-9 fold higher tolerance) | + (1-9 fold higher tolerance) |  |  |  |  |  |  |  |
| CC(C)N(C)S(=O)(=O)NC(=O)c1cc(-n2c(=O)cc(C(F)(F)F)n(C)c2=O)c(F)cc1Cl [saflufenacil] | − | + (1-9 fold higher tolerance) | ++++ (1,000-9,999 fold higher tolerance) | +++ (100-999 fold higher tolerance) | ++++ (1,000-9,999 fold higher tolerance) | +++ (100-999 fold higher tolerance) | +++++ (more than 10,000 fold higher tolerance) | +++++ (more than 10,000 fold higher tolerance) | ++++ (1,000-9,999 fold higher tolerance) | − | +++ (100-999 fold higher tolerance) | ++ (10-99 fold higher tolerance) | ++ (10-99 fold higher tolerance) | ++ (10-99 fold higher tolerance) | ++ (10-99 fold higher tolerance) | +++ (100-999 fold higher tolerance) |
| C#CCN(C)c1c(C#N)cnn1-c1nn2c(c1Cl)CCCC2 [pyraclonil] | − | + (1-9 fold higher tolerance) | ++ (10-99 fold higher tolerance) | + (1-9 fold higher tolerance) | + (1-9 fold higher tolerance) | ++ (10-99 fold higher tolerance) | ++ (10-99 fold higher tolerance) | + (1-9 fold higher tolerance) | ++ (10-99 fold higher tolerance) |  |  |  |  |  |  |  |
| CCOC(=O)COc1cc(-c2nn(C)c(OC(F)F)c2Cl)c(F)cc1Cl [pyraflufenethyl, pyraflufen-ethyl] | − |  | +++ (100-999 fold higher tolerance) |  |  | +++ (100-999 fold higher tolerance) |  | ++ (10-99 fold higher tolerance) |  |  |  |  |  |  |  |  |
